One compound from paper PMC2857584 (Science (New York, N.Y.), 2009) can be followed below.

Each structure is given as a SMILES string.

For this assay, the target named is T1, SepSecS (Homo sapiens, UniProt Q9HD40).
T1 sequence (Q9HD40 1-501): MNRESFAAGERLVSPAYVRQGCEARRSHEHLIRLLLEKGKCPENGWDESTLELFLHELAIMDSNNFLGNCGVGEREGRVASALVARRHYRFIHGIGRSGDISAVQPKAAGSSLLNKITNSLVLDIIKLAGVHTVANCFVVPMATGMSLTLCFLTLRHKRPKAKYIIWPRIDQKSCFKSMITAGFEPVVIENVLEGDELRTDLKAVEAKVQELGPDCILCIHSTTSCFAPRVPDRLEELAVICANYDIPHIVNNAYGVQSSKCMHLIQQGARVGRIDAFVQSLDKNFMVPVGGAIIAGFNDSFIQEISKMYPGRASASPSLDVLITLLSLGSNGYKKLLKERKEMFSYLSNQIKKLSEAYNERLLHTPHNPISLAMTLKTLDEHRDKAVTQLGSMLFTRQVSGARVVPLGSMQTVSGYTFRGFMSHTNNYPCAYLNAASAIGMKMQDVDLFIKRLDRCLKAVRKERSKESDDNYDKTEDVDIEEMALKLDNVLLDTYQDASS
As to the kind of experiment: X-ray crystallography, […] A. Type of assay: binding. To be noted: covalent; Schiff base (internal aldimine) with Lys284.

On to `Cc1ncc(COP(=O)(O)O)c(C=O)c1O` [PLP, pyridoxal phosphate], for which the “X-ray crystallography, 2.8 A” value is recorded as “Each SepSecS monomer has a PLP cofactor covalently linked to the Nε-amino group”.
